Among the data in patent publication US7071218B2, “N-substituted heterocycles for the treatment of hypercholesteremia, dyslipidemia and other metabolic disorders; cancer, and other diseases” (Incyte San Diego Incorporated, priority 2001, dated 2006) are anticancer effect values, retold here.

Experiment [1] deals with PC-3 prostate cancer cells. The experiment can be described thus: MTT anti-cancer assay, PC-3 prostate cancer cells. The following applies: PC-3, 6 days. It is filed as cell-based, human. The source says: (§1) The anti-cancer activity of the compounds of the invention herein have been tested in in vitro assays using a microculture assay with 3-(4,5-dimethylthiazol-2-yl)-2,5-diphenyltetrazolium bromide (“MTT”) a test well known to those skilled in the art. This assay has an advantage over in vivo assay in that results are obtained within a week as opposed to several months. The assay can be carried out in 96-well microtiter plates. The MTT assay is based on the production of a dark blue formazan product by dehydrogenase in the mitochondria of live tumor cells after exposure to drug for 6 days [M. C. […] Thus, only live cells are stained and can be measured at 595 nm. […]
(§2) Treatment: Before commencing drug treatment, cells were replenished with media containing 0.5% FCS. […] As an end point, the amount of surviving cells (Live cells) was measured using a standard […] assay (MTT based), and calculated as percentage of cells treated with vehicle (DMSO) alone (% control).
(§3) MTT assay: The assay is based on the cleavage of the yellow tetrazolium salt MTT to purple formazan crystals by dehydrogenase activity in active mitochondria. […] The formazan crystals formed are solubilized and the resulting colored solution is quantified using a scanning multiwell spectrophotometer. […]

Experiment [2] deals with human cancer cell lines (A549, MDA-MB-468, PC-3, Bx-PC3). Nature of the experiment: MTT anti-cancer assay, the other cancer cell lines of the panel. It is filed as cell-based. To be noted: cell lines other than PC-3 (A549, MDA-MB-468, Bx-PC3), compared to PC-3.
Text: as §1, §2, §3
In general terms: Formazan colour is commonly taken as a measure of viable cells.

`COc1cccc(/C=C2\SC(=S)N(CC(=O)O)C2=O)c1-c1cc2c(cc1C)C(C)(C)CCC2(C)C` [Compound 9, {5-[3-Methoxy-2-(3,5,5,8,8-pentamethyl-5,6,7,8-tetrahydro-naphthalen-2-yl)-benzylidene]4-oxo-2-thioxo-thiazolidin-3-yl}-acetic acid]: the values for the anticancer effect entry in experiment [1] and in experiment [2] were “very potent anticancer effect” and “less pronounced”, respectively.
